# Source: patent US20150164754A1, “ANTI-AGEING COMPOSITION CONTAINING DEHYDROGENATED ABIETIC ACID AS ACTIVE INGREDIENT” (AMOREPACIFIC CORPORATION, priority 2012, published 2015)
# Tests used:
# [1] = system: human normal fibroblasts; test: Effect on stimulation of collagen biosynthesis (PICP kit); type: cell-based; settings: 10 μM dehydrogenated abietic acid, 48 hours, supernatant, 50 μg/ml ascorbic acid added
# Protocol: The effect of dehydrogenated abietic acid (purchased from Ramidus AB) of Formula 1 on the stimulation of collagen biosynthesis was measured. In order to examine the effect of dehydrogenated abietic acid on the stimulation of collagen biosynthesis, human normal fibroblasts were seeded into a 96-well microplate at a density of 1×10^4 cells/well, and incubated in DMEM (Dulbecco's Modified Eagle's Medium) medium in a CO2 incubator at 36.5° C. for 24 hours. After incubation, in Example 2, the medium was replaced with a serum-free medium containing 10 μM of dehydrogenated abietic acid, and then the cells were further incubated for 48 hours. In Comparative Example 2, cells not treated with dehydrogenated abietic acid were used. At 24 hours before completion of the incubation, 50 μg/ml of ascorbic acid was added to each well to stimulate collagen synthesis. After completion, each well was washed, and the medium was replaced with serum-free DMEM medium, after which the cells were further incubated for 24 hours. After incubation, the supernatant of each well was collected, and the amount of procollagen type-I C-peptide (PICP) in the supernatant was measured using a kit (Takara, Kyoto, Japan) to determine the amount of newly synthesized collagen. The amount of PICP that is the amount of collagen synthesized is expressed in units of ng/2×10^4 cells in Table 2 below.
# [2] = system: human normal fibroblasts; test: Effect on fibroblast proliferation (MTT); type: cell-based; settings: 10 μM dehydrogenated abietic acid, 24 hours, relative to group not treated with sample
# Protocol: The effect of dehydrogenated abietic acid (purchased from Ramidus AB) of Formula 1 on wrinkle reduction was measured. In order to examine the effect of dehydrogenated abietic acid on skin cell proliferation that reduces wrinkles, human normal fibroblasts were seeded into a 96-well microplate at a density of 1×10^4 cells/well, and incubated in DMEM (Dulbecco's Modified Eagle's Medium) medium in a CO2 incubator at 36.5° C. for 24 hours. After incubation, in Example 1, the medium was replaced with a serum-free medium containing 10 μM of dehydrogenated abietic acid, and then the cells were further incubated for 24 hours. In Comparative Example 1, cells not treated with dehydrogenated abietic acid were used. Then, 10 μl of (3-(4,5-dimethyl-thiazol-2-yl)2,5-diphenyl tetrazolium (MTT, 5 mg/ml) was added to each well, which was then allowed to stand for 4 hours, followed by removal of the medium. Then, 100 μl of dimethyl sulfoxide solution was added to each well, and the absorbance at 570 nm was measured with a microplate reader. Based on the absorbance measured as described above, the cell proliferation effect was calculated using the following equation. The results of the calculation are shown in Table 1 below. Cell proliferation effect (%)=(absorbance of group treated with sample/absorbance of group not treated with sample)×100 Equation 1
structure (smiles),measurement,setting,value
"CC(C)c1ccc2c(c1)CC[C@H]1[C@](C)(C(=O)O)CCC[C@]21C [Example 1, dehydrogenated abietic acid]","Amount of collagen synthesized (procollagen type-I C-peptide, PICP)",[1],220 ng/2 × 10^4
same,Cell proliferation effect (%),[2],60.0%
